Measured values from patent publication US9527830B2 (Merck Sharp & Dohme Corp., priority 2011, dated 2016).
pIC50: −log10 of the molar value.

Experiments:
hROMK (hKir1.1) = target: T1, hROMK (hKir1.1) (Homo sapiens, UniProt P48048); experiment: Thallium Flux Assay (FluxOR, FLIPR-Tetra); type: cell-based; settings: HEK293 cells stably expressing hROMK; potency ranges
T1 construct: expressed in transfected cells
T1 sequence (P48048 1-391): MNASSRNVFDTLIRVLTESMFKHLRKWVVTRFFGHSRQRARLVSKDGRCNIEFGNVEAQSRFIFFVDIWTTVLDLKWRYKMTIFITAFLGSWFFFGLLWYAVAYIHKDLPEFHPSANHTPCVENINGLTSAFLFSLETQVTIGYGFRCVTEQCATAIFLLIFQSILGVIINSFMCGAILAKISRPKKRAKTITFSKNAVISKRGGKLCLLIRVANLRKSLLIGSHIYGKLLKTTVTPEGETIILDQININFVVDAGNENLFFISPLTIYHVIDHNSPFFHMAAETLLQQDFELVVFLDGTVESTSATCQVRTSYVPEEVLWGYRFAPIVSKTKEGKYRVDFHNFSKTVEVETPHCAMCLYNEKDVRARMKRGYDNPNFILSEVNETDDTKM
Description: Several assays may be used to measure functional inhibition of the ROMK channel by compounds of the instant invention. One primary assay that can be used is a functional ^86Rb^+ efflux assay that measures the ability of ROMK to permeate ^86Rb^+, in the absence or presence of test compound. Under control conditions, cells loaded with ^86Rb^+ and incubated in Rb^+-free medium display a time-dependent efflux of the isotope, the rate of which depends on number of functional channels. When cells are incubated in the presence of a channel inhibitor, efflux of ^86Rb^+ is prevented in a concentration-dependent manner, and IC50 values of inhibition by compounds can be accurately determined. This assay has been established with cell lines expressing either human, rat or dog ROMK channels, and can operate in 96- or 384-well format. Importantly, the human, rat, and dog ^86Rb^+ efflux assays can be carried out in the presence of up to 100% serum allowing, therefore, an accurate estimation of the effect of protein binding on the inhibitory activity of compounds of interest. Another ROMK functional assay makes use of the ability of thallium to permeate through open ROMK channels and increase the fluorescence of a dye previously loaded into the cells. Under control conditions, cells loaded with dye and exposed to thallium-containing medium display a time-dependent increase in fluorescence, the rate of which depends on number of functional channels. When cells are incubated in the presence of a channel inhibitor, the increase in fluorescence is attenuated in a concentration-dependent manner, and IC50 values of inhibition by compounds can be accurately determined. This assay has been established with cell lines expressing either human, or rat ROMK channels, and operates in 384-well format. Another assay for evaluation of the compounds of the instant invention and for evaluation of mechanism of action of compounds of Formula I relies on the measurement of the electrical current that is generated as potassium permeates through the channel. For these electrophysiological experiments, three different platforms, IonWorks, QPatch, or manual patch clamp, are used, depending on the experimental protocol under consideration. IonWorks operates in a 384-well format and allows accurate determination of IC50 values for inhibitors.
HEK293 cells stably expressing hROMK (hKir1.1) were grown at 37° C. in a 10% CO2 humidified incubator in complete growth media: Dulbecco's Modified Eagle Medium supplemented with non-essential amino acids, Penicillin/Streptomycin/Glutamine, G418 and FBS. At >80% confluency, media was aspirated from the flask and rinsed with 10 ml Calcium/Magnesium-free PBS. 5 ml of 1× trypsin (prepared in Ca/Mg Free PBS) was added to T-225 flask and flask returned to 37° C./CO2 incubator for 2-3 minutes. To dislodge the cell, the side of the flask was gently banged by hand. Cells were completely triturated and then transferred to 25 ml complete media, and centrifuged at 1,500 rpm for 6 min followed by resuspension in complete growth media and cell concentration determined. For typical re-seeding, 4E6 cells/T-225 flask attained >80% confluency in 4 days. Under ideal growth conditions and appropriate tissue culture practices, this cell line was stable for 40-45 passages.
FluxOR™ Kit Components (Invitrogen F10017)
• FluxOR™ Reagent (Component A) • FluxOR™ Assay Buffer (Component B)—10× Concentrate • PowerLoad™ Concentrate (Component C)—100× Concentrate • Probenecid (Component D)—Lyophilized sample was kept at −20° C. Water soluble, 100× after solubilization in 1 ml water. Store at 4° C. • FluxOR™ Chloride-free Buffer (Component E)—5× Concentrate • Potassium sulfate (K2SO4) Concentrate (Component F)—125 mM in water. Stored at 4° C. • Thallium sulfate (Tl2SO4) Concentrate (Component G)—50 mM in water. […]

hROMK1 (Kir1.1) = target: T2, hROMK1 (Kir1.1) (Homo sapiens, UniProt P48048); experiment: ^86Rb^+ Efflux Assay; type: cell-based; settings: CHO-DHFR- cells stably expressing hROMK1; potency ranges
T2 construct: expressed in transfected cells
T2 sequence (P48048 1-391): T1 sequence (P48048 1-391)

Structure (SMILES): Cc1c(CCN2CCC(NCc3ccc4c(c3)COC4=O)CC2)ccc2c1COC2=O [Example 88, 4-Methyl-5-[2-(4-{[(1-oxo-1,3-dihydro-2-benzofuran-5-yl)methyl]amino}piperidin-1-yl)ethyl]-2-benzofuran-1(3H)-one]
- pIC50 (hROMK (hKir1.1)): ≥ 7.00
- pIC50 (hROMK1 (Kir1.1)): ≥ 6.70

Structure (SMILES): Cc1c(CCN2CCC(NCc3ccc4nonc4c3)CC2)ccc2c1COC2=O [Example 89, 5-(2-{4-[(2,1,3-Benzoxadiazol-5-ylmethyl)amino]piperidin-1-yl}ethyl)-4-methyl-2-benzofuran-1(3H)-one]
- pIC50 (hROMK (hKir1.1)): ≥ 6.70
- pIC50 (hROMK1 (Kir1.1)): ≥ 6.30

Structure (SMILES): Cc1c(CCN2CCC(NCc3ccc(C#N)c(F)c3)CC2)ccc2c1COC2=O [Example 90, 2-Fluoro-4-[({1-[2-(4-methyl-1-oxo-1,3-dihydro-2-benzofuran-5-yl)ethyl]piperidin-4-yl}amino)methyl]benzonitrile]
- pIC50 (hROMK (hKir1.1)): ≥ 6.70
- pIC50 (hROMK1 (Kir1.1)): ≥ 6.30
